Target: T1, KCNT1 (KNa1.1, Slack) (Homo sapiens, UniProt Q5JUK3)
T1 construct: expressed in transfected cells; host or cells: HEK-TREX (tetracycline-inducible HEK cell line)
T1 sequence (Q5JUK3 1-1230): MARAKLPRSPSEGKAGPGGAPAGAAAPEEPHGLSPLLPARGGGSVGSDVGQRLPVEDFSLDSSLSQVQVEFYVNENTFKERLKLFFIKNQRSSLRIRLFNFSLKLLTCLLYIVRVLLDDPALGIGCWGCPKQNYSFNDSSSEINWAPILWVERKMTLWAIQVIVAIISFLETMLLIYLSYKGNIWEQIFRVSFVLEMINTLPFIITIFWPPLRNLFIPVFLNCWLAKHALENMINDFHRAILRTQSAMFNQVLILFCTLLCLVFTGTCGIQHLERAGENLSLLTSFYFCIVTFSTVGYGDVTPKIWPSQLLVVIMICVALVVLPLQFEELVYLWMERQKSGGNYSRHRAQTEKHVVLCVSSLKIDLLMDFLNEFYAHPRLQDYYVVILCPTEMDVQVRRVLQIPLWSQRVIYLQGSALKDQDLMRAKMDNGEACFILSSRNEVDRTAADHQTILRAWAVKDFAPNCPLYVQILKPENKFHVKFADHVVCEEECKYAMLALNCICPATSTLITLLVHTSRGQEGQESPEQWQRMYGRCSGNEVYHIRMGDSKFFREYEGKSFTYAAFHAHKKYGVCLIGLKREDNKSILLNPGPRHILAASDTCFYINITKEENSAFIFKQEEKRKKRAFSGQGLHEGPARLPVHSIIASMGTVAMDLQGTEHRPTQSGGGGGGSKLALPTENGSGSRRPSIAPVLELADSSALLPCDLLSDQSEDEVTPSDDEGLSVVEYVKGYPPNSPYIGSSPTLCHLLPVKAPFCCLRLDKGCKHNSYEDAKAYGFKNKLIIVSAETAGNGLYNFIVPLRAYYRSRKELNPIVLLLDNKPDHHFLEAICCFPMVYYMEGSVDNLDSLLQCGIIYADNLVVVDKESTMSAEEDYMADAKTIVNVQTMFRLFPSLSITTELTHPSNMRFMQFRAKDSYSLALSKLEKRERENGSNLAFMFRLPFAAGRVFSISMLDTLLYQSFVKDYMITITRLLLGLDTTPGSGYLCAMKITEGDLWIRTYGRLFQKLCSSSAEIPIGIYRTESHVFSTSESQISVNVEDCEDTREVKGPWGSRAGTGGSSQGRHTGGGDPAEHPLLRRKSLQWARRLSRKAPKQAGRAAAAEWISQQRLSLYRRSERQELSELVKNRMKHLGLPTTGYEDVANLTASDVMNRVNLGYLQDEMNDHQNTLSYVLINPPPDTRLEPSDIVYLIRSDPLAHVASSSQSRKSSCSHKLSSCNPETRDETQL
Test: KCNT1 patch clamp assay (SyncroPatch 384PE automated patch clamp)
Format: cell-based
Settings: tetracycline inducible cell line (HEK-TREX); perforated patch mode; step from -80 mV to 0 mV; room temperature; read-out: KCNT1-WT IC50
Protocol: Inhibition of KCNT1 (KNa1.1, Slack) was evaluated using a tetracycline inducible cell line (HEK-TREX). Currents were recorded using the SyncroPatch 384PE automated, patch clamp system. Pulse generation and data collection were performed with PatchController384 V1.3.0 and DataController384 V1.2.1 (Nanion Technologies). The access resistance and apparent membrane capacitance were estimated using built-in protocols. Current were recorded in perforated patch mode (10 μM escin) from a population of cells. The cells were lifted, triturated, and resuspended at 800,000 cells/ml. The cells were allowed to recover in the cell hotel prior to experimentation. Currents were recorded at room temperature. The external solution contained the following (in mM): NaCl 105, NMDG 40, KCl 4, MgCl2 1, CaCl2 5 and HEPES 10 (pH=7.4, Osmolarity ˜300 mOsm). The extracellular solution was used as the wash, reference and compound delivery solution. The internal solution contained the following (in mM): NaCl 70, KF 70, KCl 10, EGTA 5, HEPES 5 and Escin 0.01 (pH=7.2, Osmolarity ˜295 mOsm). Escin is made at a 5 mM stock in water, aliquoted, and stored at −20° C. The compound plate was created at 2× concentrated in the extracellular solution. The compound was diluted to 1:2 when added to the recording well. The amount of DMSO in the extracellular solution was held constant at the level used for the highest tested concentration. A holding potential of −80 mV with a 100 ms step to 0 mV was used. Mean current was measured during the step to 0 mV. […] The average mean current from 3 sweeps was calculated and the % inhibition of each compound was calculated. The % Inhibition as a function of the compound concentration was fit with a Hill equation to derive IC50, slope, min and max parameters. If KCNT1 inhibition was less than 50% at the highest tested concentration or if an IC50 could not be calculated, then a percent inhibition was reported in place of the IC50.
In this table, “A” indicates IC50 of less than or equal to 1 μM; “B” indicates inhibition of between 1 μM to 20 μM; and “C” indicates inhibition of greater than or equal to 20 μM.

Row | IC50 | SMILES
1 | ≤ 1000 nM | CNS(=O)(=O)c1ccc(C(=O)NCc2ccc(Cl)cc2Br)s1 [Compound 11, N-(2-bromo-4-chlorobenzyl)-5-(N-methylsulfamoyl)thiophene-2-carboxamide]
2 | ≤ 1000 nM | CNS(=O)(=O)c1ccc(C(=O)NCc2ccc(Cl)cc2F)s1 [Compound 10, N-(4-chloro-2-fluorobenzyl)-5-(N-methylsulfamoyl)thiophene-2-carboxamide]
3 | ≤ 1000 nM | CS(=O)(=O)c1ccc(C(=O)NCc2ccc(Cl)cc2Cl)s1 [Compound 6, N-(2,4-dichlorobenzyl)-5-(methylsulfonyl)thiophene-2-carboxamide]
4 | ≤ 1000 nM | Cc1cc(C(F)F)ccc1CNC(=O)c1ccc(S(C)(=O)=O)s1 [Compound 53, N-(4-(difluoromethyl)-2-methylbenzyl)-5-(methylsulfonyl)thiophene-2-carboxamide]
5 | 1000 to 20000 nM | Cc1cc(C(F)(F)F)ncc1CNC(=O)c1ccc(S(C)(=O)=O)s1 [Compound 54, N-((4-methyl-6-(trifluoromethyl)pyridin-3-yl)methyl)-5-(methylsulfonyl)thiophene-2-carboxamide]
6 | ≤ 1000 nM | CNS(=O)(=O)c1ccc(C(=O)NCc2ccc(C)cc2)s1 [Compound 22, N-(4-methylbenzyl)-5-(N-methylsulfamoyl)thiophene-2-carboxamide]
7 | 1000 to 20000 nM | CS(=O)(=O)c1ccc(C(=O)NCc2ccc(C(F)(F)F)nc2)s1 [Compound 46, 5-(methylsulfonyl)-N-((6-(trifluoromethyl)pyridin-3-yl)methyl)thiophene-2-carboxamide]
8 | ≤ 1000 nM | CNS(=O)(=O)c1ccc(C(=O)NCc2ccc(Cl)cc2C)s1 [Compound 9, N-(4-chloro-2-methylbenzyl)-5-(N-methylsulfamoyl)thiophene-2-carboxamide]
9 | ≤ 1000 nM | CS(=O)(=O)c1ccc(C(=O)NCc2ccc(C(F)F)cc2)s1 [Compound 51, N-(4-(difluoromethyl)benzyl)-5-(methylsulfonyl)thiophene-2-carboxamide]
10 | ≤ 1000 nM | CCS(=O)(=O)c1ccc(C(=O)NCc2ccc(Cl)cc2Cl)s1 [Compound 16, N-(2,4-dichlorobenzyl)-5-(ethylsulfonyl)thiophene-2-carboxamide]
11 | ≤ 1000 nM | CNS(=O)(=O)c1ccc(C(=O)NCc2ccc(Cl)c(F)c2)s1 [Compound 20, N-(4-chloro-3-fluorobenzyl)-5-(N-methylsulfamoyl)thiophene-2-carboxamide]
12 | ≤ 1000 nM | CNS(=O)(=O)c1ccc(C(=O)N[C@@H](C)c2ccc(Cl)cc2Cl)s1 [Compound 2, (S)—N-(1-(2,4-dichlorophenyl)ethyl)-5-(N-methylsulfamoyl)thiophene-2-carboxamide]
13 | ≤ 1000 nM | CC(C)(C)c1ccc(CNC(=O)c2ccc(S(C)(=O)=O)s2)cc1 [Compound 32, N-(4-(tert-butyl)benzyl)-5-(methylsulfonyl)thiophene-2-carboxamide]
14 | 1000 to 20000 nM | CS(=O)(=O)c1ccc(C(=O)NCc2ccc(C(F)(F)F)cn2)s1 [Compound 48, 5-(methylsulfonyl)-N-((5-(trifluoromethyl)pyridin-2-yl)methyl)thiophene-2-carboxamide]
15 | ≤ 1000 nM | O=C(NCc1ccc(Cl)cc1Cl)c1ccc(S(=O)(=O)C2CC2)s1 [Compound 15, 5-(Cyclopropylsulfonyl)-N-(2,4-dichlorobenzyl)thiophene-2-carboxamide]
16 | ≤ 1000 nM | CNS(=O)(=O)c1ccc(C(=O)N[C@@H](C)c2ccc(Cl)cc2)s1 [Compound 5, (S)—N-(1-(4-chlorophenyl)ethyl)-5-(N-methylsulfamoyl)thiophene-2-carboxamide]
17 | ≤ 1000 nM | CNS(=O)(=O)c1ccc(C(=O)NCc2ccc(C(F)(F)F)cc2)s1 [Compound 29, 5-(N-methylsulfamoyl)-N-(4-(trifluoromethyl)benzyl)thiophene-2-carboxamide]
18 | ≥ 20000 nM | CNS(=O)(=O)c1ccc(C(=O)NCc2ccc(N3CCCC3)cc2)s1 [Compound 30, 5-(N-methylsulfamoyl)-N-(4-(pyrrolidin-1-yl)benzyl)thiophene-2-carboxamide]
